Values joined by “and” are separate entries in the source; they are usually repeats but may differ in a detail not shown here. Identical values can stand only once.
Experiments:
human TRPA1 = target: T1, human TRPA1 (Homo sapiens, UniProt O75762); assay: Calcium 5 dye [Ca]i assay in HEK-293 Flp-In T-REx cells expressing TRPA1 (agonist response); type: cell-based; conditions: for [Ca]i response (change in fluorescence), individual replicates: sheet Figure 3(E)
T1 construct: Life Technologies (cells); host or cells: Flp-In T-REx HEK-293
T1 sequence (O75762 whole entry): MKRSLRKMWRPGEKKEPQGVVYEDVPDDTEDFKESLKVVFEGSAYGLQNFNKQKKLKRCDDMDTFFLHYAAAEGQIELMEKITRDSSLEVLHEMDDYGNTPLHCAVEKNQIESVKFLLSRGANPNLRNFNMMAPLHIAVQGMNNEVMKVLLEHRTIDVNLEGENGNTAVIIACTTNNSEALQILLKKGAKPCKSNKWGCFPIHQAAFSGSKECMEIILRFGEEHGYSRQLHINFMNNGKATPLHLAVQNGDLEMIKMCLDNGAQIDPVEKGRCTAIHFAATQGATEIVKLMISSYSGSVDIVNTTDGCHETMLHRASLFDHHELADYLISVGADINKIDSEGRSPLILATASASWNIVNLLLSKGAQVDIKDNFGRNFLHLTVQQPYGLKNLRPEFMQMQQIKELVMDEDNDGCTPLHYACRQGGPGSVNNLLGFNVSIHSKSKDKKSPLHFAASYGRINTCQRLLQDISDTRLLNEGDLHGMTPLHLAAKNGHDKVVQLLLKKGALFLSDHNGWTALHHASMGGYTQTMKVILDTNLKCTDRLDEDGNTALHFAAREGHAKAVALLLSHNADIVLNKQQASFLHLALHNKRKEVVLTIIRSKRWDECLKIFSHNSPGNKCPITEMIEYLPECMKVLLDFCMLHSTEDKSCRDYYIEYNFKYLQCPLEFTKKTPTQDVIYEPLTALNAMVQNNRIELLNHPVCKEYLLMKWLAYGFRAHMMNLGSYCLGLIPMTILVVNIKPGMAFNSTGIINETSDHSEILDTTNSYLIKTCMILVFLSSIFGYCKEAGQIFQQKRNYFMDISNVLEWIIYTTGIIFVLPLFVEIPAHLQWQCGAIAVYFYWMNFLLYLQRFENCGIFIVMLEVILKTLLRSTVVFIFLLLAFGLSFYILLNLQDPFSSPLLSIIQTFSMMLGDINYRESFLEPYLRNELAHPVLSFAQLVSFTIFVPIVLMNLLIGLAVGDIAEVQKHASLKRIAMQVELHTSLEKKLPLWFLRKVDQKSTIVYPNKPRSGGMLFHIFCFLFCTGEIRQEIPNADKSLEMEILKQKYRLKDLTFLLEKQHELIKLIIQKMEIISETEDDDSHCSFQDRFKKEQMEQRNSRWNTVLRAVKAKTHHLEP
In short: (§1)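 Tetracycline-induced (1 µg ml^−1, 4 h) HEK-293 T-REx cells loaded with Calcium 5 dye plus 1.25 mM probenecid for 1 h; agonist added after 1 min baseline (0.1% DMSO final), fluorescence (485/525 nm) read every 2 s for 5 min at 37 °C. Response as % change from baseline, solvent-subtracted; EC50/Emax from three-parameter logistic fit, given as pEC50.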

HEK-293 EV cells = assay: Calcium 5 dye [Ca]i assay in HEK-293 empty vector (EV) cells; type: cell-based, human; conditions: 10 µM; HEK-293 EV cells; percentage of predrug baseline
In short: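 Tetracycline at 1 µg ml^−1 was added 4 h before testing; cells were loaded with Calcium 5 dye for 1 h and read at 37 °C, with drug added after 1 min baseline (final 0.1% DMSO). The response was the % change from the 60 s baseline after solvent subtraction, and EC50/Emax came from a three-parameter logistic fit, reported as pEC50.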

human TRPV1 = target: T2, human TRPV1 (Homo sapiens, UniProt Q8NER1); assay: Calcium 5 dye [Ca]i assay in HEK-293 Flp-In T-REx cells expressing TRPV1 (agonist response); type: cell-based; conditions: for Change in Ca5 fluorescence, individual experiments (CRC raw data): TRPV1 cells
T2 construct: Life Technologies (cells); host or cells: Flp-In T-REx HEK-293
T2 sequence (Q8NER1 whole entry): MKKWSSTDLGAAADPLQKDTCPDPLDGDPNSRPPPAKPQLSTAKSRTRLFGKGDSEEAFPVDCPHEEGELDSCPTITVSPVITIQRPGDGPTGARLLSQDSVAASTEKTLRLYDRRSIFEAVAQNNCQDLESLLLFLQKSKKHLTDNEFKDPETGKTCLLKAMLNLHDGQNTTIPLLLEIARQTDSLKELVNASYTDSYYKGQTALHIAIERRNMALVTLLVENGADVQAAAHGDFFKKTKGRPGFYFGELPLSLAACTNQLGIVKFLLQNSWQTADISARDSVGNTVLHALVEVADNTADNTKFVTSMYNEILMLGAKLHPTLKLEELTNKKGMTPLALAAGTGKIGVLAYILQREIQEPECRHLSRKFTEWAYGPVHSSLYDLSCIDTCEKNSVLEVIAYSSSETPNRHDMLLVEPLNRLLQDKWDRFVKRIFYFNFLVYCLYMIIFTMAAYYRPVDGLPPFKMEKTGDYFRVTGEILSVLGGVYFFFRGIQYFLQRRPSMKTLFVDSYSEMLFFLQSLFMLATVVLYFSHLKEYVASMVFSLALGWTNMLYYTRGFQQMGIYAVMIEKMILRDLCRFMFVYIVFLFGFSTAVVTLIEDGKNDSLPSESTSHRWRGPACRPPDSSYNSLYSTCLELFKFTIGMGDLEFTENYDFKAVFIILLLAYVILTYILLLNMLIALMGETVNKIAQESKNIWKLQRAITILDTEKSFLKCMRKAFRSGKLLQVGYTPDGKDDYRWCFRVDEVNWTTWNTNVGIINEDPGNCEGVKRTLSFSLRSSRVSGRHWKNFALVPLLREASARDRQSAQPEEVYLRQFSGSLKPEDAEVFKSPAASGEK
In short: as §1

CCCCC/C=C\C/C=C\C/C=C\C/C=C\CCCCOC(CO)CO [2-AG ether, 2-arachidonoylglycerol ether]
Elevation of [Ca]i in HEK-293 TRPA1 cells compared with HEK-293 EV cells (human TRPA1; 10 µM (cinnamaldehyde 300 µM)): did not produce a change | Change of Ca5 fluorescence, Mean ± SEM, TRPA1 (10 µM) (human TRPA1; 10 µM, HEK-293 TRPA1 cells, percentage of predrug baseline): 91 ± 40% | TRPA1 activation at the highest concentration tested (human TRPA1; 30 µM): activated TRPA1 | TRPA1 response compared with the highest concentration of cinnamaldehyde (300 µM) (human TRPA1; 30 µM): significantly smaller | TRPA1 response, Mean± SEM (N) (human TRPA1; 30 µM, one-way ANOVA comparison with cinnamaldehyde 300 µM): 223 ± 60 | [Ca]i response (change in fluorescence), individual replicates (human TRPA1; concentration -4.52288 (log)): 16.8824 and 397.614 and 5.373 and 104.863 and 520.454 and 293.014 | [Ca]i response (change in fluorescence), individual replicates (human TRPA1; concentration -5 (log)): 6.439 and 205.99 and 4.156 and 6.3216 and 170.328 and 155.005 | [Ca]i response (change in fluorescence), individual replicates (human TRPA1; concentration -5.52288 (log)): 2.263 and 3.295 and 6.759 and 5.886 and 11.1841 and 49.3437 | [Ca]i response (change in fluorescence), individual replicates (human TRPA1; concentration -6 (log)): 11.4488 and 1.879 and 1.228 and 4.253 and 4.557 and 3.684 | [Ca]i response (change in fluorescence), individual replicates (human TRPA1; concentration -6.52288 (log)): 9.48 and 8.5131 and 4.1 and 4.971 and 4.357 and 3.125 | [Ca]i response (change in fluorescence), individual replicates (human TRPA1; concentration -7 (log)): 0.2809 and 4.873 and 5.959 and 5.37 and 6.745 and 2.857 | Emax ± SEM % TRPA1 (30 µM) (human TRPA1; highest tested concentration (30 µM) or derived from concentration-response curves (cinnamaldehyde)): 223 ± 87% | Change of Ca5 fluorescence, Mean ± SEM, EV (10 µM) (HEK-293 EV cells): 8 ± 2% | Elevation of [Ca]i in HEK-293 TRPV1 cells compared with HEK-293 EV cells (human TRPV1; 10 µM): did not produce a notable change | Change of Ca5 fluorescence, Mean ± SEM, TRPV1 (10 µM) (human TRPV1; 10 µM, HEK-293 TRPV1 cells, percentage of predrug baseline): 39 ± 24% | TRPV1 response, Mean± SEM (N) (human TRPV1; 30 µM, one-way ANOVA comparison with capsaicin 10 µM): 63± 56 | Emax ± SEM % TRPV1 (30 µM) (human TRPV1; highest tested concentration (30 µM) or derived from concentration-response curves (DHEA, AEA, NADA, capsaicin)): 63 ± 23% | Change in Ca5 fluorescence, individual experiments (CRC raw data) (human TRPV1; log concentration -4.52288 (M)): 153.653 and 87.759 and 41.6511 and 12.8054 and 5.8133 and 75.505 | Change in Ca5 fluorescence, individual experiments (CRC raw data) (human TRPV1; log concentration -5 (M)): 155.318 and 30.8581 and 23.9661 and 3.174 and 0.3103 and 20.3939 | Change in Ca5 fluorescence, individual experiments (CRC raw data) (human TRPV1; log concentration -5.52288 (M)): 16.5791 and 3.033 and 7.578 and 1.888 and 0.6433 and 11.7313 | Change in Ca5 fluorescence, individual experiments (CRC raw data) (human TRPV1; log concentration -6 (M)): 7.918 and 3.6522 and 9.605 and 2.557 and 2.906 and 1.314 | Change in Ca5 fluorescence, individual experiments (CRC raw data) (human TRPV1; log concentration -6.52288 (M)): 3.121 and 1.724 and 12.4457 and 2.326 and 0.7415 and 2.165 | Change in Ca5 fluorescence, individual experiments (CRC raw data) (human TRPV1; log concentration -7 (M)): 2.256 and 4.13 and 8.499 and 1.026 and 2.717 and 1.813

— article PMC11949107, “Polyunsaturated fatty acids and their endocannabinoid-related metabolites activity at human TRPV1 and TRPA1 ion channels expressed in HEK-293 cells” (PeerJ, 2025)
